From patent publication US20150164767A1, “Skin Collagen Enhancing Agent” (J-Oil Mills, Inc., priority 2011, published 2015) come the findings set out here.

Molecules are shown by their SMILES.

The test system of data set [1] is normal human dermal fibroblasts. The data set can be described thus: Type I collagen production by normal human dermal fibroblasts (ELISA, per unit protein). Format: cell-based. The note with it: for Type I collagen amount (ng/μg protein) (average ± SD): 48 hours, n=6, control 8.91 ± 0.26, significant (<1%); for production amount of collagen (relative value, no sample = 100, per unit amount of protein): 1.5×10^−5 M, 48 hours culture, n=6, FIG. 1, t-test vs control. The procedure: Skin collagen enhancing activity of menaquinone-7 was compared with those of vitamin K1 and menaquinone-4, using normal human fibroblasts. A menaquinone-7 reagent (Wako Pure Chemical Industries, Ltd.) was used after purity validation by HPLC. The comparison was performed at a setting concentration of 1.5×10^−5 M, which is a maximum solubility of vitamin Ks in a cell culture system. Vitamin K1 (Wako Pure Chemical Industries, Ltd.) and menaquinone-4 (Sigma) were used after purity validation by HPLC.
Normal human dermal fibroblasts (manufactured by Kurabo Industries Ltd.) were inoculated on a 96-well microplate at a cell density of 2.0×10^4 cells per well using a Dulbecco's modified Eagle's medium (DMEM) (Sigma) containing 0.5% by weight of fetal bovine serum (FBS). The medium was replaced, 48 hours after the inoculation, by DMEM containing 0.5% by weight of FBS and menaquinone-7 in a concentration shown in Table 5. A test maximum concentration solution was prepared by dissolving menaquinone-7 in ethanol and diluting it 100 times with a DMEM containing 0.5% FBS. The testing method was confirmed to be valid using magnesium ascorbic acid phosphate (VC-PMg) as a positive control. The medium containing a sample was cultured for 48 hours, and the medium supernatant was collected and subjected to ELISA for measuring the amount of type I collagen. The cells were lysed in a 0.5% Triton X-100 solution, and the protein amount was measured.
A medium and a type I collagen solution for a standard curve were placed on each well of a high-absorption ELISA plate, and coating at 37° C. for 2 hours was performed, followed by blocking with a 1% bovine serum albumin (BSA) solution at 37° C. for 1 hour. Primary antibody reaction was performed using anti-human collagen type I antibody (rabbit) diluted with a 0.3% BSA solution at 37° C. for 1 hour. Secondary antibody reaction was performed using Histofine MAX-PO(R) (rabbit) diluted with a phosphate buffer at 37° C. for 1 hour. A phosphate-citrate buffer (0.1 M, pH 4.0) solution containing 0.3 mg/mL of 2,2′-azinobis(3-ethylbenzothiazoline-6-sulfonic acid)diammounium salt (ABTS) and 0.03% hydrogen peroxide was added thereto, followed by reaction for 20 min The absorbance of the reaction solution was measured at 405 nm with a microplate reader.
The type I collagen amount in the medium was determined from the standard curve prepared by measurement on the same ELISA plate, and the type I collagen amount per unit amount of protein was calculated by dividing the type I collagen amount in the medium by the total protein amount of the cells.
The test was performed at n=6 for each group containing a sample, and the results are each shown as an average +standard deviation. The statistical processing was performed by a Student t-test against the control group not containing the sample, and the symbol * indicates a significance level of less than 1%.
The collagen enhancing activities of menaquinone-7 for human dermal fibroblasts were investigated in the concentration range shown in Table 5. The test of each group containing a sample was performed at n=6, and the results are each shown as an average value. The statistical processing was performed by a Student t-test against the control group not containing the sample, and the symbol * indicates a significance level of less than 1%.

A short description of data set [2]: Vitamin K (MK-7) concentration in rat skin after feeding a menaquinone-7-containing diet. It is filed as in vivo. The note with it: Wistar rats, diet with menaquinone-7 150 μg/g, free feeding 90 days, average ± SD. The procedure: Wistar rats (male, 5-week old) were freely fed with purified feed AIN93G (manufactured by Oriental Yeast) for one week for habituation, and then separated into groups each consisting of three rats so that the total weight of each group was the same. Three rats in each group were freely fed with a rat standard diet (AIN93G) or a menaquinone-7-containing feed (menaquinone-7: 150 μg/g) composed of rat standard diet (AIN93G) and menaquinone-7 for 90 days. Then, vitamin K concentration in the skin was measured. Vitamin K was analyzed by high-performance liquid chromatography with post-column reduction using platinum black and fluorescence detection (Sato, et al., Biochim Biophys. Acta, 1622, 145-150, 2003).

A further data set has as its system skin collagen. Kind of data set: Skin collagen amount in rats fed MK7-containing diets (Sircol Collagen Assay Kit). It is filed as in vivo, Crl:CD(SD)(SPF) rats. The note with it: 90 days; for Type I collagen amount (μg/mg wet skin weight) (average ± SD): MK7-free 38.43 ± 4.56, not significant; for Rate of increase of collagen (%): vs MK7-free diet group. On the procedure: Four-week old male Crl:CD(SD)(SPF) rats were habituated after arrival till the start of administration, including one week for quarantine. During the quarantine and habituation, general conditions were observed every day, and the weights were measured on the first day (the day following the arrival), the third day, and the seventh day. The rats were separated into four groups each consisting of five rats so that the total weight of each group was the same.
Rats were freely fed for 90 days with any one of three types of menaquinone-7-containing feeds by adding menaquinone-7 to rat standard diet AIN93G: high MK7 diet (menaquinone-7: 45.4 μg/g diet), moderate MK7 diet (menaquinone-7: 15 μg/g diet), and low MK7 diet (menaquinone-7: 4.54 μg/g diet); or MK7-free diet.
The rats were subjected to fasting on the last day and then dissected. The hair at the abdomen region was carefully shaved with hair clippers, and the skin including the derm was sampled. The skin was cut into about 100 mg pieces and they were exactly weighed. The skin collagen amount was measured with a skin collagen measurement kit (trade name: Sircol Collagen Assay Kit, manufactured by Biocolor). Increased amounts of collagen in three groups fed with the diet containing MK7 were compared with that in the group fed with the MK7-free diet as a control. The statistical processing was performed by a Student t-test. A significance level P<0.05 was determined as to have significant difference. […] In the table, the symbol * means a significant difference.

`CC(C)=CCC/C(C)=C/CC/C(C)=C/CC/C(C)=C/CC/C(C)=C/CC/C(C)=C/CC/C(C)=C/CC1=C(C)C(=O)c2ccccc2C1=O` [Menaquinone-7, menaquinone-7]: the “Type I collagen amount (ng/μg protein) (average ± SD)” value in data set [1] (0.5 × 10^−6M) is on record as 10.66 ± 0.48 ng/μg protein; in data set [1] (0.5 × 10^−6M, listed as menaquinone-7), “significantly promotes production of type I collagen”; in data set [1] (1 × 10^−5M) it was 11.03 ± 0.23 ng/μg protein; in data set [1] (1 × 10^−6M), 10.26 ± 0.44 ng/μg protein; in data set [1] (3 × 10^−6M) it was 10.41 ± 0.49 ng/μg protein. Moreover, the “production amount of collagen (relative value, no sample = 100, per unit amount of protein)” value in data set [1] is “significantly increased”. Further, the “menaquinone-7 amount necessary for promoting collagen production” value in data set [1] (conversion of 0.5×10^−6 M) is 325 ng/g; in data set [1] (human dermal fibroblasts, lowest concentration tested), 500 nM. Also, the “MK-7 concentration (ng/g) in skin” value in data set [2] is reported as 427 ± 243 ng/g. Also, the figures for the “Type I collagen amount (μg/mg wet skin weight) (average ± SD)” value in the data set on skin collagen (MK7 4.54 μg/g feed) and in the data set with skin collagen (MK7 15.0 μg/g feed) were 40.97 ± 6.69 μg/mg wet skin weight and 43.33 ± 2.42 μg/mg wet skin weight, respectively. The figures for the “Rate of increase of collagen (%)” value with skin collagen (MK7 4.54 μg/g feed), with skin collagen (MK7 15.0 μg/g feed) and with skin collagen (MK7 45.4 μg/g feed) were 6.6%, 12.8% and 17.6%, respectively. Also, in the data set on skin collagen (oral administration, 4.54 to 45.4 μg/g feed), the “amount of collagen in skin, dose dependence” value was “tendency of dose-dependently increasing the amount of collagen”.

For `CC(C)=CCC/C(C)=C/CC/C(C)=C/CC/C(C)=C/CC1=C(C)C(=O)c2ccccc2C1=O` [Menaquinone-4, menaquinone-4, reference compound], in data set [1], the “production amount of collagen (relative value, no sample = 100, per unit amount of protein)” value is on record as “only menaquinone-7 significantly increased”. Further, in data set [1] (6.0×10^−5 M), the “production amount of collagen” value was “did not increase at all”.

Turning to `CC1=C(C/C=C(\C)CCC[C@H](C)CCC[C@H](C)CCCC(C)C)C(=O)c2ccccc2C1=O` [vitamin K1, reference compound], the “production amount of collagen (relative value, no sample = 100, per unit amount of protein)” value in data set [1] is recorded as “only menaquinone-7 significantly increased”.
